Measured values published in patent US8410168B2, “Methods and compositions for treating ophthalmic conditions with retinyl derivatives” (Acucela, Inc., priority 2004, dated 2013).
“Also recorded” adds a separate entry of the source.

What was measured:
[1] = system: mice; assay: Retinoid composition, chromophore regeneration and electrophysiology in HPR-treated mice; assay type: in vivo; settings: 10 mg/kg daily for 28 days
Text: Panels D-F of FIG. 17 are electrophysiological measurements of rod function (panel D), rod and cone function (panel E) and recovery from photobleaching (panel F).

[2] = biological target: T1, LRAT (Homo sapiens, UniProt O95237); settings: cited from earlier work
T1 construct: host or cells: membranes from liver and small intestine
T1 sequence (O95237 1-230): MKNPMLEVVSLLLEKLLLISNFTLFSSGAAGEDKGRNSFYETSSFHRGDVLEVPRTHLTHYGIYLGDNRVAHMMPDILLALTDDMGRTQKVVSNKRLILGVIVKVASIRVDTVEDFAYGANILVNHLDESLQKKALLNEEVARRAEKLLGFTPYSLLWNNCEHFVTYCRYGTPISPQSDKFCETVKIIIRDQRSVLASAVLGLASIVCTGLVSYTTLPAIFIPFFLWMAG

[3] = system: ABCA4−/− mice; assay: HPR drug holiday after 28 days of treatment; assay type: in vivo, mouse
Protocol: (§1) HPR (10 mg/kg in DMSO) was administered to ABCA4−/− mice daily for a period of 28 days. Control ABCA4−/− mice received only DMSO for the same period. […] Importantly, the observed reductions in lipofuscin autofluorescence persist long after cessation of HPR therapy. HPR (10 mg/kg), or DMSO, administration was discontinued following 28 days of treatment and re-evaluated A2E and precursor levels after 2 weeks and after 4 weeks.
We examined eyecup extracts by HPLC and employed detection by absorbance and fluorimetry. Identity of the indicated peaks was confirmed by on-line spectral analysis and by co-elution with authentic standards. […] Further, the A2E and precursor (A2PE-H2 and A2PE) levels after a […] or 28-day drug holiday remained at or near the levels immediately following 28 days of treatment (i.e., ca. 50% reduction relative to control), although after the 28-day drug holiday, the amount of A2E and precursor (A2PE-H2 and A2PE) had increased by a few percentage points relative to the 12-day drug holiday levels. […] It is clear that peak fluorescence tracks with the abundance of A2E, A2PE and A2PE-H2.
This effect cannot be attributed to long-term reductions in serum retinol as serum retinol had returned to baseline 48 hours following the last HPR dose. […] Furthermore, HPR reduces serum retinol levels, which leads to a reduction in the level of retinol in the eyes of treated animals. Once the level of retinol has been reduced in the eye, there is a time lag in the subsequent increase in retinol levels in the eye. Alone or in combination, the production of A2E, A2PE and A2PE-H2 in the eye remains low despite the absence of HPR in the serum or the eye.

[4] = system: abcr null mutant mice; assay: Lipofuscin autofluorescence in RPE and light microscopy of retina; assay type: in vivo, mouse; settings: 28 days of HPR
Protocol: Treatment conditions are as described above.
as §1

[5] = biological target: T2, CRALBP (Homo sapiens, UniProt P12271); assay: Size exclusion chromatography study of binding to CRALBP; settings: 4 μM apo-CRALBP, 8 μM ligand
T2 construct: made in house
T2 sequence (P12271 whole entry, species assumed): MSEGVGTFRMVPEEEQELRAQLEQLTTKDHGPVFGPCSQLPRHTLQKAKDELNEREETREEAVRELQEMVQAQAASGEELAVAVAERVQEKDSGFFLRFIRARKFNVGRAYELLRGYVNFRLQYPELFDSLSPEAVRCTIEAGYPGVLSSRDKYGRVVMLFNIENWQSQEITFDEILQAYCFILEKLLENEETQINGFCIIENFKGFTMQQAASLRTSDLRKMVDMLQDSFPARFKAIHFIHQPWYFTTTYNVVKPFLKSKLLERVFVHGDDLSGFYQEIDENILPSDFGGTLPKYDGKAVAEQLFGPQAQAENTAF
Protocol: Apo-CRALBP at 4 μM was incubated with 8 μM of 11cRAL, atRAL or HPR in PBS at room temperature for 1 hour. In control experiment, equivalent volume of DMSO was added to the CRALBP solution. 50 μl of each sample mixture was analyzed by BioRad Bio-Sil SEC125 Gel Filtration Column (300×7.8 mm).

[6] = HPR concentration in the RPE of treated mice; assay type: in vivo
Protocol: (§2) We examined the effects on HPR on enzymes or proteins of the visual cycle using in vitro biochemical assays. Specifically, the utilization of exogenous all-trans retinol by membranes prepared from bovine RPE was studied. […] Steady-state levels of HPR in the RPE (determined from mice which have been given 20 mg/kg HPR, i.p., daily for 28 days) range from 5-10 μM. With this in mind, we examined the effects of 10 μM HPR on production of all-trans retinyl esters and 11-cis retinol in assays similar to those described above. […] In the presence of endogenous retinoids, utilization of exogenous all-trans retinol is extremely low and 11-cis retinol is produced solely from the endogenous all-trans retinyl esters. […] Thus, the retinoic acids appear to affect at least two targets in the visual cycle. We have determined that HPR-induced reduction of 11-cis retinol biosynthesis occurs via LRAT inhibition and reduction in all-trans retinyl ester levels. In this situation, the isomerase enzyme is starved for substrate and 11-cis retinol production declines.
We performed an analysis of the dissociation constant (KD) for 11cRAL and HPR binding to apo-CRALBP (see FIG. 15). […] This calculation is based upon the ligand concentration necessary to fully quench the protein fluorescence. The data reveal that both 11cRAL and HPR quench apo-CRALBP fluorescence maximally at ˜1.5 μM. Thus, although apo-CRALBP is described as an 11 cis-specific retinoid binding protein, it appears to bind HPR as well.
A second target for HPR in the visual cycle was identified using in vitro biochemical assays. Lecithin retinol acyl transferase (LRAT) catalyzes the conversion of retinol into retinyl esters. LRAT is critical not only for retinol-retinyl ester homeostasis but also for generation of substrate for visual chromophore biosynthesis. The data shown in panel A of FIG. 16 illustrate the inhibitory effect of HPR on the rate of retinyl ester synthesis. […] In a separate study, we have determined that HPR concentrations in the RPE approach 10 μM with a 10 mg/kg dose of HPR.

[7] = system: 11-cis retinol biosynthesis; assay: In vitro 11-cis retinol production by bovine RPE membranes; assay type: biochemical; settings: 10 μM HPR, p<0.05
Protocol: as §2

CC1=C(/C=C/C(C)=C/C=C/C(C)=C/C(=O)Nc2ccc(O)cc2)C(C)(C)CCC1 [HPR, N-(4-hydroxyphenyl)retinamide]
regeneration of visual chromophore [1]: does not affect
LRAT activity in membranes prepared from liver and small intestine [2]: marked inhibition
reduction of A2E and precursor (A2PE-H2 and A2PE) levels relative to control ([3]; 10 mg/kg 28 days, then 12- or 28-day drug holiday): ca. 50%
detection in the eyes after drug holiday ([3]; 28-day drug holiday): unable to detect
time for serum retinol to return to baseline after the last HPR dose ([3]; mouse, in vivo): 48 h
lipofuscin autofluorescence in the RPE [4]: significantly reduces; also recorded: comparable to levels observed in untreated wild type mice
retinal morphology by light microscopy [4]: No aberrant morphology or compromise of the integrity in retinal cytostructure was observed; also recorded: no alteration of retina cytostructure or morphology
ligand bound to CRALBP (monomer elution peak absorbance) [5]: only small amount of HPR is bound to CRALBP
HPR concentrations in the RPE ([6]; 10 mg/kg dose of HPR): ~10 µM
concentration at 28 days ([6]; BL6/129, mouse, RPE (retinal pigment epithelium), intraperitoneal, 20 mg/kg HPR, i.p., daily for 28 days, read-out: steady-state levels of HPR in the RPE): 5 to 10 µM
concentrations of HPR in the RPE during the animal trials ([6]; even at the lowest dose of 2.5 mg/kg): exceed 30 nM
effect on 11-cis retinol biosynthesis [7]: statistically significant inhibition
